In patent publication US6461997B1, “Triazole sulfones having herbicidal activity” (Monsanto Technology LLC, priority 1999, dated 2002):

Assays:
PANDI (fall panicum) = experiment: Pre-emergence herbicidal activity, warm season; type: in vivo, Panicum dichotomiflorum; settings: GR80 = lowest tested rate (300, 100, 30, 10 g/ha) with 80% or greater inhibition; approx. 14 days after treating; 30/21° C.
Outline: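 Activity is expressed as the rate giving 80% inhibition, with 300, 100, 30 and 10 g/ha typically tested. An asterisk marks activity short of 80% at the top rate. Warm-season grasses were held at 30/21 °C; cool-season blackgrass and wild buckwheat at 18/13 °C; scoring at about 14 days.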

[1] = system: AGSST (creeping bentgrass); experiment: Pre-emergence herbicidal activity, cool season; type: in vivo, Agrostis stolonifera; settings: GR80 = lowest tested rate (300, 100, 30, 10 g/ha) with 80% or greater inhibition; approx. 14 days after treating; 18/13° C.
Outline: (§1)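 Seeds sown in sterilised fertilised topsoil received surface-applied compound in 50:50 acetone/water, typically at 300, 100, 30 and 10 g/ha, then greenhouse-grown at 30/21° C (warm-season species) or 18/13° C (cool-season species). Percent inhibition versus untreated plants was scored at about 14 days, giving GR80; an asterisk marks activity short of 80% at the top rate.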

AVEFA (wild oat) = experiment: Pre-plant incorporated (PPI) herbicidal activity, cool season; type: in vivo, Avena fatua
Protocol: (§2) In another set of tests, the pre-plant incorporated (PPI) activity of compounds of this invention was evaluated on the same species as for the pre-emergence tests described above. In the PPI tests the following procedure, designed to simulate PPI application, was used.
(§3) A pre-prepared topsoil mixture (described above) was placed in a pot and compacted to a depth of 1.0 to 1.25 cm from the top of the pot. Seeds of each of several monocotyledonous and dicotyledonous annual plant species were placed on top of the soil. A sufficient quantity of soil to cover the seeds and level fill the pot was weighed into an open container. A known amount of the test compound was dissolved or suspended in an organic solvent and applied by spraying to this cover soil. The cover soil was thoroughly mixed to distribute the test compound throughout the cover soil, and was then applied as a cover layer over the seeds. Untreated soil was used as a cover layer for control pots. After treatment the plants were placed in a greenhouse where they received 0.64 cm of overhead irrigation. All subsequent watering consisted of a light overhead mist and/or subirrigation as needed for germination and growth. Tables 9 and 10 below relate to warm season plant species which were placed after pre-emergence treatment in a greenhouse with a 30/21° C. day/night temperature regime. Tables 11 and 12 below relates to cool season plant species placed after pre-emergence treatment in a greenhouse or growth chamber with an 18/13° C. day/night temperature regime. Only the compounds of Examples 1, 6, 8, 11, 13 and 15-20 were included in PPI tests.
(§4) Approximately 14 days after planting and treating, the plants were observed and herbicidal efficacy recorded as percent inhibition by comparison with untreated plants.

BROTE (downy brome) = experiment: as above; type: in vivo, Bromus tectorum
Protocol: as §2, §3, §4

ALOMY (blackgrass) = experiment: as above; type: in vivo, Alopecurus myosuroides
Protocol: as §2, §3, §4

SINAR (wild mustard) = experiment: as above; type: in vivo, Sinapis arvensis
Protocol: as §2, §3, §4

corn (ZEAMX) = experiment: Selectivity test, PPI, warm season crop; type: in vivo, Zea mays; settings: PPI application
Protocol: as §3, §4
Additional pre-emergence and PPI tests were conducted by the procedures described above, on warm and cool season weed species in the presence of crop species, to assess herbicidal selectivity. Crop species included in warm season tests were corn (Zea mays, ZEAMX), rice (Oryza sativa, ORYSA) and soybean (Glycine max, GLYMX). Crop species included in cool season tests were wheat (Triticum aestivum, TRZAW), barley (Hordeunm vulgare, HORVX) and oilseed rape (Brassica napus, BRSNS).
Tables 15 and 16 relate to pre-emergence and PPI tests respectively on warm season species. Table 17 relates to pre-emergence tests on cool season species.

POLCO (wild buckwheat) = experiment: Pre-emergence herbicidal activity, cool season; type: in vivo, Polygonum convolvulus; settings: lowest tested rate with 80% or greater inhibition; rates 300, 100, 30, 10 g/ha; about 14 days
Outline: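 Herbicidal efficacy was judged visually as percent inhibition compared with untreated plants some 14 days after treatment, giving GR80 over doses of 10 to 300 g/ha. Proso millet and crabgrass grew at 30/21 °C; blackgrass and wild buckwheat grew at 18/13 °C.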

[2] = system: BRAPP (broadleaf signalgrass); experiment: Pre-plant incorporated (PPI) herbicidal activity, warm season; type: in vivo, Brachiaria platyphylla
Protocol: as §2, §3, §4

STEME (common chickweed) = experiment: Pre-emergence herbicidal activity, cool season; type: in vivo, Stellaria media; settings: lowest tested rate with 80% or greater inhibition; rates 300, 100, 30, 10 g/ha; about 14 days
Outline: as §1

[3] = pre-plant incorporated, lowest tested rate with 80% or greater inhibition, about 14 days
[4] = weed, PPI application, 100 g/ha
[5] = weed, PPI application, 300 g/ha
[6] = weed, PPI application, 900 g/ha

Q: Which results are given for `C=CCC(F)(F)S(=O)(=O)c1ncn(C(=O)N(CC)CC)n1` [Example 17, 1-(N,N-diethylcarbamoyl)-3-[(1,1-difluoro-3-butenyl)sulfonyl]-1,2,4-triazole]?
A: Pre-emergence activity (GR80) PANDI (PANDI (fall panicum)): 100 g/ha; Pre-emergence activity (GR80) AGSST [1]: 100 g/ha; inhibition at 10 g/ha (AVEFA (wild oat); Avena fatua, weed, PPI application, 10 g/ha, read-out: Percent inhibition AVEFA): 0%; inhibition at 30 g/ha (AVEFA (wild oat); Avena fatua, weed, PPI application, 30 g/ha, read-out: Percent inhibition AVEFA): 15%; inhibition at 100 g/ha (AVEFA (wild oat); Avena fatua, weed, PPI application, 100 g/ha, read-out: Percent inhibition AVEFA): 50%; inhibition at 300 g/ha (AVEFA (wild oat); Avena fatua, weed, PPI application, 300 g/ha, read-out: Percent inhibition AVEFA): 75%; inhibition at 900 g/ha (AVEFA (wild oat); Avena fatua, weed, PPI application, 900 g/ha, read-out: Percent inhibition AVEFA): 100%; PPI activity GR80, AVEFA (AVEFA (wild oat); [3]): 100 g/ha; inhibition at 10 g/ha (BROTE (downy brome); Bromus tectorum, weed, PPI application, 10 g/ha, read-out: Percent inhibition BROTE): 0%; inhibition at 30 g/ha (BROTE (downy brome); Bromus tectorum, weed, PPI application, 30 g/ha, read-out: Percent inhibition BROTE): 0%; inhibition at 100 g/ha (BROTE (downy brome); Bromus tectorum, weed, PPI application, 100 g/ha, read-out: Percent inhibition BROTE): 20%; inhibition at 300 g/ha (BROTE (downy brome); Bromus tectorum, weed, PPI application, 300 g/ha, read-out: Percent inhibition BROTE): 30%; inhibition at 900 g/ha (BROTE (downy brome); Bromus tectorum, weed, PPI application, 900 g/ha, read-out: Percent inhibition BROTE): 95%; PPI activity GR80, BROTE (BROTE (downy brome); [3]): 100 g/ha; inhibition at 10 g/ha (ALOMY (blackgrass); Alopecurus myosuroides, weed, PPI application, 10 g/ha, read-out: Percent inhibition ALOMY): 50%; inhibition at 30 g/ha (ALOMY (blackgrass); Alopecurus myosuroides, weed, PPI application, 30 g/ha, read-out: Percent inhibition ALOMY): 60%; inhibition at 100 g/ha (ALOMY (blackgrass); Alopecurus myosuroides, weed, PPI application, 100 g/ha, read-out: Percent inhibition ALOMY): 100%; inhibition at 300 g/ha (ALOMY (blackgrass); Alopecurus myosuroides, weed, PPI application, 300 g/ha, read-out: Percent inhibition ALOMY): 90%; inhibition at 900 g/ha (ALOMY (blackgrass); Alopecurus myosuroides, weed, PPI application, 900 g/ha, read-out: Percent inhibition ALOMY): 100%; PPI activity GR80, ALOMY (ALOMY (blackgrass); [3]): 30 g/ha; inhibition at 10 g/ha (SINAR (wild mustard); Brassica, weed, PPI application, 10 g/ha, read-out: Percent inhibition SINAR): 70%; inhibition at 30 g/ha (SINAR (wild mustard); Brassica, weed, PPI application, 30 g/ha, read-out: Percent inhibition SINAR): 70%; inhibition at 100 g/ha (SINAR (wild mustard); Brassica, weed, PPI application, 100 g/ha, read-out: Percent inhibition SINAR): 90%; inhibition at 300 g/ha (SINAR (wild mustard); Brassica, weed, PPI application, 300 g/ha, read-out: Percent inhibition SINAR): 100%; inhibition at 900 g/ha (SINAR (wild mustard); Brassica, weed, PPI application, 900 g/ha, read-out: Percent inhibition SINAR): 100%; PPI activity GR80, SINAR (SINAR (wild mustard); [3]): 30 g/ha; inhibition at 10 g/ha (corn (ZEAMX); Zea mays, 10 g/ha, read-out: Percent inhibition ZEAMX): 0%; inhibition at 30 g/ha (corn (ZEAMX); Zea mays, 30 g/ha, read-out: Percent inhibition ZEAMX): 0%; inhibition at 100 g/ha (corn (ZEAMX); Zea mays, 100 g/ha, read-out: Percent inhibition ZEAMX): 20%; inhibition at 300 g/ha (corn (ZEAMX); Zea mays, 300 g/ha, read-out: Percent inhibition ZEAMX): 30%; inhibition at 900 g/ha (corn (ZEAMX); Zea mays, 900 g/ha, read-out: Percent inhibition ZEAMX): 95%; Pre-emergence activity GR80, POLCO (POLCO (wild buckwheat)): 100 g/ha; inhibition at 10 g/ha ([2]; Urochloa platyphylla, PPI application, 10 g/ha, read-out: Percent inhibition BRAPP): 0%; inhibition at 30 g/ha ([2]; Urochloa platyphylla, PPI application, 30 g/ha, read-out: Percent inhibition BRAPP): 0%; inhibition at 100 g/ha ([2]; Urochloa platyphylla, PPI application, 100 g/ha, read-out: Percent inhibition BRAPP): 50%; inhibition at 300 g/ha ([2]; Urochloa platyphylla, PPI application, 300 g/ha, read-out: Percent inhibition BRAPP): 100%; inhibition at 900 g/ha ([2]; Urochloa platyphylla, PPI application, 900 g/ha, read-out: Percent inhibition BRAPP): 100%; PPI activity GR80, BRAPP [2, 3]: 100 g/ha; Pre-emergence activity GR80, STEME (STEME (common chickweed)): 100 g/ha

Q: With `CCN(CC)C(=O)n1cnc(S(=O)(=O)C(F)(F)C(F)(F)Br)n1` [Example 4] as the molecule, how does the “Pre-emergence activity (GR80) PANDI” value (PANDI (fall panicum)) read?
A: 30 g/ha

Q: And the “Pre-emergence activity (GR80) AGSST” value [1]?
A: 10 g/ha

Q: And the “Percent inhibition AVEFA” value (AVEFA (wild oat); weed, PPI application, 30 g/ha)?
A: 10%

Q: And the “Percent inhibition AVEFA” value (AVEFA (wild oat); [4])?
A: 10%

Q: What about the “Percent inhibition AVEFA” value (AVEFA (wild oat); [5]) of the same molecule?
A: 50%

Q: What about the “Percent inhibition AVEFA” value (AVEFA (wild oat); [6]) of the same molecule?
A: 100%

Q: And the “Percent inhibition BROTE” value (BROTE (downy brome); weed, PPI application, 30 g/ha)?
A: 0%

Q: What about the “Percent inhibition BROTE” value (BROTE (downy brome); [4]) of the same molecule?
A: 50%

Q: What about the “Percent inhibition BROTE” value (BROTE (downy brome); [5]) of the same molecule?
A: 85%

Q: What about the “Percent inhibition BROTE” value (BROTE (downy brome); [6]) of the same molecule?
A: 90%

Q: What about the “Percent inhibition ALOMY” value (ALOMY (blackgrass); weed, PPI application, 30 g/ha) of the same molecule?
A: 70%

Q: What about the “Percent inhibition ALOMY” value (ALOMY (blackgrass); [4]) of the same molecule?
A: 95%

Q: What about the “Percent inhibition ALOMY” value (ALOMY (blackgrass); [5]) of the same molecule?
A: 100%

Q: What about the “Percent inhibition ALOMY” value (ALOMY (blackgrass); [6]) of the same molecule?
A: 100%

Q: What about the “Percent inhibition SINAR” value (SINAR (wild mustard); weed, PPI application, 30 g/ha) of the same molecule?
A: 95%

Q: What about the “Percent inhibition SINAR” value (SINAR (wild mustard); [4]) of the same molecule?
A: 100%

Q: What about the “Percent inhibition SINAR” value (SINAR (wild mustard); [5]) of the same molecule?
A: 100%

Q: What about the “Percent inhibition SINAR” value (SINAR (wild mustard); [6]) of the same molecule?
A: 100%

Q: What about the “Percent inhibition ZEAMX” value (corn (ZEAMX); 30 g/ha) of the same molecule?
A: 0%

Q: And the “Percent inhibition ZEAMX” value (corn (ZEAMX); 100 g/ha)?
A: 5%

Q: What about the “Percent inhibition ZEAMX” value (corn (ZEAMX); 300 g/ha) of the same molecule?
A: 40%

Q: What about the “Percent inhibition ZEAMX” value (corn (ZEAMX); 900 g/ha) of the same molecule?
A: 50%

Q: And the “Pre-emergence activity GR80, POLCO” value (POLCO (wild buckwheat))?
A: 300 g/ha

Q: What about the “Percent inhibition BRAPP” value ([2]; PPI application, 30 g/ha) of the same molecule?
A: 0%

Q: What about the “Percent inhibition BRAPP” value ([2]; PPI application, 100 g/ha) of the same molecule?
A: 60%

Q: And the “Percent inhibition BRAPP” value ([2]; PPI application, 300 g/ha)?
A: 100%

Q: What about the “Percent inhibition BRAPP” value ([2]; PPI application, 900 g/ha) of the same molecule?
A: 100%

Q: And the “Pre-emergence activity GR80, STEME” value (STEME (common chickweed))?
A: 10 g/ha
